Measurements published in PMC10445491 (Frontiers in Chemistry, 2023).
Entries after “also recorded” stand apart in the source; their conditions may differ. Where two headings read alike, the source gives them in different places.

Key:
[1] = tested on: neuraminidase from Clostridium perfringens (BNA, EC 3.2.1.18); format: biochemical; settings: for fold higher inhibition than compound 6: ratio of IC50 vs compound 6
[2] = molecular target: neuraminidase from Clostridium perfringens (BNA); format: biochemical; settings: for Kinetic mode: Lineweaver-Burk and Dixon plots
[3] = molecular target: neuraminidase from Clostridium perfringens (BNA) (Clostridium perfringens, UniProt P10481); format: binding
neuraminidase from Clostridium perfringens (BNA) (Clostridium perfringens, UniProt P10481), sequence (P10481 whole entry, looked up): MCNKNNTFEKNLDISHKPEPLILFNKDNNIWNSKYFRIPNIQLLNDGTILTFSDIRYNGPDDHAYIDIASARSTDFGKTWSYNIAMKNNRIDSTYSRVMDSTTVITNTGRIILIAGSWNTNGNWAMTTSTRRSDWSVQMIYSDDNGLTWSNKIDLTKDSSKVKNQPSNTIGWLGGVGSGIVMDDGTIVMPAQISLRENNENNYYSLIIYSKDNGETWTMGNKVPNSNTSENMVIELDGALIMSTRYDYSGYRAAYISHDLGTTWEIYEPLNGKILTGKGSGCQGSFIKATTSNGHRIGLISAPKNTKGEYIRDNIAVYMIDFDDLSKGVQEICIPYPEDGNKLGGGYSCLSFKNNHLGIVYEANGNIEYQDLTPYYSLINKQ

[4] = sodium acetate buffer pH 5.0, substrate 100 μM, BNA 0.02 unit/mL, triplicate, read-out: IC50
[5] = Dixon plots, read-out: K i (inhibition constant)

Compound | fold more effective than compound 3 ([1]; ratio of IC50 vs compound 3) | fold higher inhibition than compound 6 [1] | IC50 [1, 4] | Ki [2, 5] | Kinetic mode [2] | Time-dependent (slow-binding) behaviour ([2]; preincubation 0-75 min) | Reversibility of inhibition ([2]; residual activity vs enzyme concentration (0.01, 0.02, 0.04 unit/mL)) | k 3 ([2]; slow-binding inhibition, forward rate of enzyme-inhibitor complex formation) | Ki ([2]; slow-binding inhibition, preincubation with 0, 0.2, 0.4, 0.8 µM inhibitor, read-out: K i app) | k 4 ([2]; slow-binding inhibition, reverse rate) | Change of BNA fluorescence (FS) intensity with increasing inhibitor concentration [3] | K A (affinity constant) [3] | K SV (Stern-Volmer constant) [3] | n (binding number of xanthone to the BNA) [3] | fold more effective relative to gentisein ([1]; ratio of IC50 vs gentisein) | IC50 ([1]; text in the panels of supplementary Figure S36, read-out: IC50 printed in Figure S36)
C=C(C)C(O)CC/C(C)=C/Cc1c(O)c(CC=C(C)C)c(O)c2c(=O)c3cc(O)ccc3oc12 (stereo not shown) [Compound 1, (E)-1,3,7-trihydroxy-4-(6-hydroxy-3,7-dimethylocta-2,7-dien-1-yl)-2-(3-methylbut-2-en-1-yl)-9H-xanthen-9-one] | 100 fold | 30 fold | 0.38 ± 0.03 µM | 0.17 µM | competitive inhibitor | reversible slow-binding inhibition; also recorded: simple slow-binding inhibitor; also recorded: simple reversible slow binding behavior | reversible inhibitor | 141000 M⁻¹ s⁻¹ | 0.144 µM | 0.0203 min⁻¹ | decreased dramatically | 244300 L/mol | 157920 L/mol | 1.2897 |  | 
CC(C)=CCc1c(O)c(C/C=C(\C)C/C=C/C(C)(C)O)c2oc3ccc(O)cc3c(=O)c2c1O [Compound 3, 1,3,7-trihydroxy-4-[(2E,5E)-7-hydroxy-3,7-dimethylocta-2,5-dien-1-yl]-2-(3-methylbut-2-en-1-yl)-9H-xanthen-9-one] |  |  | 35.8 ± 0.7 µM | 38.2 µM | Non-competitive |  |  |  |  |  |  | 20 L/mol | 1000 L/mol | 0.2168 |  | 
C=C(C)CC(O)c1c(O)c(C/C=C(\C)CCC=C(C)C)c2oc3ccc(O)cc3c(=O)c2c1O (stereo not shown) [Compound 4, cratoxanthone A] |  | 3 fold | 3.8 ± 0.1 µM | 4.2 µM | Non-competitive |  |  |  |  |  |  | 55450 L/mol | 27140 L/mol | 0.7819 |  | 
C=C(CCC=C(C)C)C(O)Cc1c(O)c(CC=C(C)C)c(O)c2c(=O)c3cc(O)ccc3oc12 (stereo not shown) [Compound 5, cratoxanthon F] |  |  | 9.2 ± 0.2 µM | 9.1 µM | Non-competitive |  |  |  |  |  |  | 1030 L/mol | 10230 L/mol | 0.4992 |  | 
CC(C)=CCC/C(C)=C/Cc1c(O)c(CC=C(C)C)c(O)c2c(=O)c3cc(O)ccc3oc12 [Compound 6, cochinechinone A] |  |  | 9.8 ± 0.3 µM | 9.6 µM | non-competitive inhibitor |  |  |  |  |  |  | 1800 L/mol | 9860 L/mol | 0.4337 | 2 fold | 
O=c1c2cc(O)ccc2oc2cc(O)cc(O)c12 [Gentisein, reference compound] |  |  | 21.4 ± 0.5 µM |  |  |  |  |  |  |  |  | 110 L/mol | 5350 L/mol | 0.3701 |  | 21.4 µM
(E)-1,3,7-trihydroxy-4-(7-hydroxy-3,7-dimethyloct-2-en-1-yl)-2-(3-methylbut-2-en-1-yl)-9H-xanthen-9-one [Compound 2] |  |  | 38.9 ± 0.6 µM | 40.7 µM | Non-competitive |  |  |  |  |  | did not decrease | 20 L/mol | 970 L/mol | 0.1796 |  | 
